Test results taken from the NIST ThermoML archive (doi:10.1016/j.jct.2011.01.008).
Numbers after ± are expanded uncertainties.

What was measured:
[1] = refractive index (Na D-line) (dimensionless); xn = mol fraction of the nth substance listed; conditions: 298.15 K; 96 kPa; Liquid; Standard Abbe refractometry; x2 = 0
[2] = xn = mol fraction of the nth substance listed; conditions: 96 kPa, Liquid, Vibrating tube method, x2 = 0
[3] = Liquid; for mass density: 96 kPa, Vibrating tube method; for vapor or sublimation pressure: Index of refraction calibration data

Row | Structure (SMILES) | refractive index [1] | mass density ([2]; 288.16 K) [kg/m3] | mass density ([2]; 293.16 K) [kg/m3] | mass density ([2]; 298.14 K) [kg/m3] | mass density ([2]; 303.14 K) [kg/m3] | mass density ([2]; 308.15 K) [kg/m3] | mass density ([2]; 313.15 K) [kg/m3] | mass density ([3]; 298.14 K) [kg/m3] | mass density ([3]; 298.15 K) [kg/m3] | mass density ([3]; 303.15 K) [kg/m3] | mass density ([3]; 308.15 K) [kg/m3] | mass density ([3]; 313.15 K) [kg/m3] | further results
1 | CCOS(=O)(=O)[O-].CCn1cc[n+](C)c1 [1-ethyl-3-methylimidazolium ethyl sulfate] + CCCCC=O | 1.4817 ± 0.0008 | 1243.72 ± 3 | 1239.95 ± 3 | 1236.86 ± 3 | 1233.58 ± 2.9 | 1229.9 ± 2.9 | 1226.73 ± 2.9 | – | – | – | – | – | mass density ([2]; 318.16 K): 1223.17 ± 2.9 kg/m3; mass density ([2]; 323.15 K): 1219.99 ± 2.9 kg/m3
2 | CCCCC=O [pentanal] | – | – | – | – | – | – | – | 804.73 ± 0.24 | 804.73 ± 0.24 | 799.97 ± 0.24 | 795.17 ± 0.24 | – | mass density ([3]; 288.15 K): 814.15 ± 0.24 kg/m3; mass density ([3]; 293.14 K): 809.45 ± 0.24 kg/m3; mass density ([3]; 313.14 K): 790.33 ± 0.24 kg/m3; mass density ([3]; 318.14 K): 785.46 ± 0.24 kg/m3; mass density ([3]; 323.14 K): 780.55 ± 0.24 kg/m3; vapor or sublimation pressure ([3]; 376.2 K): 101.3 ± 1 kPa
3 | CCC=O [propanal] | – | – | – | – | – | – | – | – | 794.85 ± 0.24 | 788.72 ± 0.24 | – | 776.53 ± 0.24 | mass density ([3]; 288.14 K): 807.26 ± 0.24 kg/m3; mass density ([3]; 293.15 K): 801.06 ± 0.24 kg/m3; mass density ([3]; 308.16 K): 782.55 ± 0.24 kg/m3; vapor or sublimation pressure ([3]; 321.2 K): 101.3 kPa
4 | CCOS(=O)(=O)[O-].CCn1cc[n+](C)c1 [1-ethyl-3-methylimidazolium ethyl sulfate] + CCC=O | 1.4817 ± 0.0008 | 1243.72 ± 3 | 1239.95 ± 3 | 1236.86 ± 3 | 1233.58 ± 2.9 | 1229.9 ± 2.9 | 1226.73 ± 2.9 | – | – | – | – | – | –
5 | CCOS(=O)(=O)[O-].CCn1cc[n+](C)c1 [1-ethyl-3-methylimidazolium ethyl sulfate] | – | – | – | – | – | – | – | 1236.86 ± 3 | 1236.86 ± 3 | – | 1229.9 ± 2.9 | 1226.73 ± 2.9 | mass density ([3]; 288.16 K): 1243.72 ± 3 kg/m3; mass density ([3]; 293.16 K): 1239.95 ± 3 kg/m3; mass density ([3]; 303.14 K): 1233.58 ± 2.9 kg/m3; mass density ([3]; 318.16 K): 1223.17 ± 2.9 kg/m3; mass density ([3]; 323.15 K): 1219.99 ± 2.9 kg/m3
